# Molecular target: human activated kallikrein enzyme (plasma kallikrein) (Homo sapiens (Human), UniProt P03952)
# Test: Inhibition of human activated plasma kallikrein, fluorogenic peptide substrate assay, 500 pM enzyme format
# Assay type: biochemical
# Conditions: 500 pM activated kallikrein enzyme, 300 uM Pro-Phe-Arg-7-amido-4-methylcoumarin substrate, 30 min preincubation, 10 min at RT; read-out: Primary Dose Response Assay: Average EC50
# Outline: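 Buffer 20 mM Tris pH 7.5, EDTA, NaCl, PEG-400, Triton X-100; 300 uM Pro-Phe-Arg-AMC; enzyme–inhibitor preincubation 30 min RT. Format one: 500 pM kallikrein, 10 min RT reaction; format two: 5 pM kallikrein, 18 h RT reaction. Fluorescence read at 460 nm (380 nm excitation).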
# Chain of human activated kallikrein enzyme (plasma kallikrein) (P03952 391-638): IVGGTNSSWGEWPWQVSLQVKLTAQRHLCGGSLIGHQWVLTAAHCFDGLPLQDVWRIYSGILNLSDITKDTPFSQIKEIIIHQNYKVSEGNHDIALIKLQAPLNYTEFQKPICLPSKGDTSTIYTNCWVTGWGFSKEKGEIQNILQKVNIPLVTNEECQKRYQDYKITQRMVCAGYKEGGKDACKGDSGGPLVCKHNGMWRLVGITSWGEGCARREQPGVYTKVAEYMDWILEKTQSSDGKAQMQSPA
# Chain of human activated kallikrein enzyme (plasma kallikrein) (P03952 20-390 partner): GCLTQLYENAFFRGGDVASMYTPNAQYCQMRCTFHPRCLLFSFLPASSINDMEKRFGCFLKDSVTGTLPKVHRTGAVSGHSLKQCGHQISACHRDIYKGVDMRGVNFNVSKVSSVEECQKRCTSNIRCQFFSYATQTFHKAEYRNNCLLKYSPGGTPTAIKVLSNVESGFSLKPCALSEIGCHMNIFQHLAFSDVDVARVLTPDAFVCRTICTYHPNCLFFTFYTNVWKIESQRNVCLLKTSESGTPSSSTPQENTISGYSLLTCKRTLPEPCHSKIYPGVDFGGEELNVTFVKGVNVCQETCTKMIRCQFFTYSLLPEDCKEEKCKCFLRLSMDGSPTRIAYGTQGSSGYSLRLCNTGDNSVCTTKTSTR
row,SMILES,EC50 [nM]
1,"CCOC(=O)c1cc(C2CC2)cn2cc(Cn3cc(C(=O)NCc4ncn5ccc(Cl)cc45)cn3)nc12 [Example I-71, ethyl 2-((4-(((7-chloroimidazo[1,5-a]pyridin-1-yl)methyl)carbamoyl)-1H-pyrazol-1-yl)methyl)-6-cyclopropylimidazo[1,2-a]pyridine-8-carboxylate]",< 1
2,"O=C(NCc1ncn2ccc(Cl)cc12)c1nnc(Cc2cn3cc(C4CC4)ccc3n2)o1 [Example I-51, N-((7-chloroimidazo[1,5-a]pyridin-1-yl)methyl)-5-((6-cyclopropylimidazo[1,2-a]pyridin-2-yl)methyl)-1,3,4-oxadiazole-2-carboxamide]",< 1
3,"Cc1ccc2nc(Cn3cc(C(=O)NCc4ncn5ccc(Br)cc45)cn3)cn2c1C [Example I-26, N-((7-bromoimidazo[1,5-a]pyridin-1-yl)methyl)-1-((5,6-dimethylimidazo[1,2-a]pyridin-2-yl)methyl)-1H-pyrazole-4-carboxamide]",1 to 10
4,"O=C(NCc1ncn2ccc(Br)cc12)c1nnc(Cc2cn3cc(C4CC4)ccc3n2)o1 [Example I-52, N-((7-bromoimidazo[1,5-a]pyridin-1-yl)methyl)-5-((6-cyclopropylimidazo[1,2-a]pyridin-2-yl)methyl)-1,3,4-oxadiazole-2-carboxamide]",< 1
5,"CC1(c2ccc3nc(Cn4cc(C(=O)NCc5ncn6ccc(Cl)cc56)cn4)cn3c2)CC1 [Example I-10, N-((7-chloroimidazo[1,5-a]pyridin-1-yl)methyl)-1-((6-(1-methylcyclopropyl)imidazo[1,2-a]pyridin-2-yl)methyl)-1H-pyrazole-4-carboxamide]",< 1
6,"O=C(NCc1ncn2ccc(Cl)cc12)c1nnn(Cc2cn3cc(C4CC4)ccc3n2)n1 [Example I-110, N-((7-chloroimidazo[1,5-a]pyridin-1-yl)methyl)-2-((6-cyclopropylimidazo[1,2-a]pyridin-2-yl)methyl)-2H-tetrazole-5-carboxamide]",< 1
7,"Cc1ccc2nc(Cn3cc(C(=O)NCc4ncn5ccc(Cl)c(Cl)c45)cn3)cn2c1 [Example I-33, N-((7,8-dichloroimidazo[1,5-a]pyridin-1-yl)methyl)-1-((6-methylimidazo[1,2-a]pyridin-2-yl)methyl)-1H-pyrazole-4-carboxamide]",10 to 100
8,"COCCc1cc(C2CC2)cn2cc(Cn3cc(C(=O)NCc4ncn5ccc(Cl)cc45)cn3)nc12 [Example I-125, N-((7-chloroimidazo[1,5-a]pyridin-1-yl)methyl)-1-((6-cyclopropyl-8-(2-methoxyethyl)imidazo[1,2-a]pyridin-2-yl)methyl)-1H-pyrazole-4-carboxamide]",< 1
9,"O=C(NCc1ncn2ccc(Cl)c(F)c12)c1cn(Cc2cc3cc(C4CC4)ccn3n2)nn1 [Example I-175, N-((7-chloro-8-fluoroimidazo[1,5-a]pyridin-1-yl)methyl)-1-((5-cyclopropylpyrazolo[1,5-a]pyridin-2-yl)methyl)-1H-1,2,3-triazole-4-carboxamide]",< 1
10,"O=C(NCc1ncn2ccc(Cl)cc12)c1cnn(Cc2cn3cc(C4CC4)c(Cl)cc3n2)c1 [Example I-24, 1-((7-chloro-6-cyclopropylimidazo[1,2-a]pyridin-2-yl)methyl)-N-((7-chloroimidazo[1,5-a]pyridin-1-yl)methyl)-1H-pyrazole-4-carboxamide]",1 to 10
11,"N#Cc1cc(C2CC2)cn2cc(Cn3cc(C(=O)NCc4ncn5ccc(Cl)cc45)cn3)nc12 [Example I-92, N-((7-chloroimidazo[1,5-a]pyridin-1-yl)methyl)-1-((8-cyano-6-cyclopropylimidazo[1,2-a]pyridin-2-yl)methyl)-1H-pyrazole-4-carboxamide]",< 1
12,"O=C(NCc1ncn2ccc(Cl)c(F)c12)c1cn(Cc2cn3cc(C4CC4)cc(C4COC4)c3n2)nn1 [Example I-169, N-((7-chloro-8-fluoroimidazo[1,5-a]pyridin-1-yl)methyl)-1-((6-cyclopropyl-8-(oxetan-3-yl)imidazo[1,2-a]pyridin-2-yl)methyl)-1H-1,2,3-triazole-4-carboxamide]",< 1
13,"Cc1cc2nc(Cn3cc(C(=O)NCc4ncn5ccc(Cl)cc45)cn3)cn2cc1Br [Example I-28, 1-((6-bromo-7-methylimidazo[1,2-a]pyridin-2-yl)methyl)-N-((7-chloroimidazo[1,5-a]pyridin-1-yl)methyl)-1H-pyrazole-4-carboxamide]",1 to 10

# Further lines, results first:
row,EC50 [nM],SMILES
1,< 1,"O=C(NCc1ncn2ccc(Cl)c(F)c12)c1cn(Cc2cn3cc(C4CC4)cc(CO)c3n2)nn1 [Example I-181, N-((7-chloro-8-fluoroimidazo[1,5-a]pyridin-1-yl)methyl)-1-((6-cyclopropyl-8-(hydroxymethyl)imidazo[1,2-a]pyridin-2-yl)methyl)-1H-1,2,3-triazole-4-carboxamide]"
2,< 1,"O=C(NCc1ncn2ccc(Cl)c(F)c12)c1cn(Cc2cn3nc(C4CC4)ccc3n2)cn1 [Example I-288, N-((7-chloro-8-fluoroimidazo[1,5-a]pyridin-1-yl)methyl)-1-((6-cyclopropylimidazo[1,2-b]pyridazin-2-yl)methyl)-1H-imidazole-4-carboxamide]"
3,< 1,"O=C(NCc1ncn2ccc(Cl)c(F)c12)c1cc(C(=O)O)n(Cc2cn3cc(C4CC4)ccc3n2)c1 [Example I-270b, 4-(((7-chloro-8-fluoroimidazo[1,5-a]pyridin-1-yl)methyl)carbamoyl)-1-((6-cyclopropylimidazo[1,2-a]pyridin-2-yl)methyl)-1H-pyrrole-2-carboxylic acid]"
4,1 to 10,"Nc1c(C2CC2)ccc2nc(Cn3cc(C(=O)NCc4ncn5ccc(Cl)cc45)cn3)cn12 [Example I-88, 1-((5-amino-6-cyclopropylimidazo[1,2-a]pyridin-2-yl)methyl)-N-((7-chloroimidazo[1,5-a]pyridin-1-yl)methyl)-1H-pyrazole-4-carboxamide]"
5,100 to 2000,"O=C(NCc1ncn2ccc(Cl)c(F)c12)c1cn(Cc2nc3ccccn3n2)nn1 [Example I-287, 1-([1,2,4]triazolo[1,5-a]pyridin-2-ylmethyl)-N-((7-chloro-8-fluoroimidazo[1,5-a]pyridin-1-yl)methyl)-1H-1,2,3-triazole-4-carboxamide]"
6,1 to 10,"COC(=O)c1cc(C(=O)NCc2ncn3ccc(Cl)c(F)c23)cn1Cc1cn2cc(C3CC3)ccc2n1 [Example I-270a, methyl 4-(((7-chloro-8-fluoroimidazo[1,5-a]pyridin-1-yl)methyl)carbamoyl)-1-((6-cyclopropylimidazo[1,2-a]pyridin-2-yl)methyl)-1H-pyrrole-2-carboxylate]"
7,< 1,"O=C(NCc1ncn2ccc(Cl)c(F)c12)c1cn(Cc2cn3cc(C4CC4)cc(-c4cncs4)c3n2)nn1 [Example I-263, N-((7-chloro-8-fluoroimidazo[1,5-a]pyridin-1-yl)methyl)-1-((6-cyclopropyl-8-(thiazol-5-yl)imidazo[1,2-a]pyridin-2-yl)methyl)-1H-1,2,3-triazole-4-carboxamide]"
8,1 to 10,"O=C(O)c1ccc(-n2c(Cn3cc(C(=O)NCc4ncn5ccc(Cl)c(F)c45)nn3)cc3cc(C4CC4)ccc32)cc1 [Example I-259, 4-(2-((4-(((7-chloro-8-fluoroimidazo[1,5-a]pyridin-1-yl)methyl)carbamoyl)-1H-1,2,3-triazol-1-yl)methyl)-5-cyclopropyl-1H-indol-1-yl)benzoic acid]"
9,< 1,"O=C(NCc1ncn2ccc(Br)c(F)c12)c1cn(Cc2cn3c(F)c(C4CC4)ccc3n2)nn1 [Example I-145, N-((7-bromo-8-fluoroimidazo[1,5-a]pyridin-1-yl)methyl)-1-((6-cyclopropyl-5-fluoroimidazo[1,2-a]pyridin-2-yl)methyl)-1H-1,2,3-triazole-4-carboxamide]"
10,100 to 2000,"O=C(O)CC(c1cn2cc(C3CC3)ccc2n1)n1cc(C(=O)NCc2ncn3ccc(Cl)c(F)c23)nn1 (stereo not shown) [Example I-227b, 3-(4-(((7-chloro-8-fluoroimidazo[1,5-a]pyridin-1-yl)methyl)carbamoyl)-1H-1,2,3-triazol-1-yl)-3-(6-cyclopropylimidazo[1,2-a]pyridin-2-yl)propanoic acid]"
11,< 1,"O=C(NCc1ncn2ccc(Cl)c(F)c12)c1cn(Cc2cn3cc(C4CC4)cc(C(F)F)c3n2)nn1 [Example I-192, N-((7-chloro-8-fluoroimidazo[1,5-a]pyridin-1-yl)methyl)-1-((6-cyclopropyl-8-(difluoromethyl)imidazo[1,2-a]pyridin-2-yl)methyl)-1H-1,2,3-triazole-4-carboxamide]"
12,10 to 100,"O=C(NCc1ncn2ccc(Cl)c(F)c12)c1cn(Cc2nc3cc(C4CC4)ccc3[nH]2)nn1 [Example I-236, N-((7-chloro-8-fluoroimidazo[1,5-a]pyridin-1-yl)methyl)-1-((5-cyclopropyl-1H-benzo[d]imidazol-2-yl)methyl)-1H-1,2,3-triazole-4-carboxamide]"
13,< 1,"O=C(NCc1ncn2ccc(Br)c(F)c12)c1nnn(Cc2cn3cc(C4CC4)ccc3n2)n1 [Example I-135, N-((7-bromo-8-fluoroimidazo[1,5-a]pyridin-1-yl)methyl)-2-((6-cyclopropylimidazo[1,2-a]pyridin-2-yl)methyl)-2H-tetrazole-5-carboxamide]"

# Same assay, conditions: comparative compounds (Table II); assay format with 500 pM (500 μM in the source) activated kallikrein; read-out: Primary Dose Response Assay: Average EC50
row,SMILES,EC50 [nM]
1,COCc1nn(Cc2ccc(Cn3ccccc3=O)cc2)cc1C(=O)NCc1c(F)ccc(OC)c1F [reference compound],10 to 100
2,"O=C(NCc1ncn2ccc(C3CC3)cc12)c1cnn(Cc2cn3cc(C4CC4)ccc3n2)c1 [drawing 403, reference compound]",100 to 2000

# From patent US10730874B2 (Shire Human Genetic Therapies, Inc., priority 2018, dated 2020)
